The target of test [1] is GST-CBP(1081-1197) bromodomain (Homo sapiens (Human), UniProt Q92793). Kind of test: CBP AlphaScreen Assay. The note with it: binding to biotin-H4(1-21) Ac-K5/8/12/16 peptide. In a few lines:
(§1)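 IC50 values derived by variable-slope dose-response fit between negative and DMSO control signals. AlphaScreen signal reports bromodomain association with an H4(1-21) peptide acetylated at K5, K8, K12 and K16.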
On the technique in general: Alpha assays give light when donor and acceptor beads are brought close together.

The next test addresses BRD4(49-170) bromodomain (Homo sapiens (Human), UniProt O60885). Kind of test: BRD4 AlphaScreen Assay. The note with it: binding to biotin-H4(1-21) Ac-K5/8/12/16 peptide. The method in brief: as §1

Drawing on patent publication US11058688B2, “Imidazopiperazine inhibitors of transcription activating proteins” (Board of Regents, The University of Texas System, priority 2018, dated 2021), this text covers IC50 for 25 compounds.

By IC50 is commonly meant the point on the concentration scale where inhibition reaches its midpoint. A higher IC50 goes with lower potency.

GST-CBP(1081-1197) bromodomain, sequence (Q92793 1081-1197): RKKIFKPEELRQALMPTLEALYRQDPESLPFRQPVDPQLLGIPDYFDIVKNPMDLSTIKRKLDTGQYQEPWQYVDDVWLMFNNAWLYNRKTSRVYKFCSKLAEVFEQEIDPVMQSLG

With `CNC(=O)N1CCn2c(C3CC(F)(F)C3)nc(-c3c(F)ccc4cc(C5CCOCC5)ncc34)c2C1` [Example 91, 3-(3,3-difluorocyclobutyl)-1-(7-fluoro-3-(tetrahydro-2H-pyran-4-yl)isoquinolin-8-yl)-N-methyl-5,6-dihydroimidazo[1,5-a]pyrazine-7(8H)-carboxamide], the 50% inhibitory concentration (IC50) in test [1] came to 48 nM; at BRD4(49-170) bromodomain it was 22400 nM.

In the case of `CNC(=O)N1CCn2c(C3CC(F)(F)C3)nc(-c3c(F)ccc4cc(-c5cnc(C)s5)ncc34)c2C1` [Example 92, 3-(3,3-difluorocyclobutyl)-1-(7-fluoro-3-(2-methylthiazol-5-yl)isoquinolin-8-yl)-N-methyl-5,6-dihydroimidazo[1,5-a]pyrazine-7(8H)-carboxamide], the IC50 in test [1] was 10 nM; on BRD4(49-170) bromodomain, greater than 25000 nM.

With `CNC(=O)N1CCn2c(C3CCC(F)(F)CC3)nc(-c3c(F)ccc4cc(-c5cnc(C)s5)ncc34)c2C1` [Example 93, 3-(4,4-difluorocyclohexyl)-1-(7-fluoro-3-(2-methylthiazol-5-yl)isoquinolin-8-yl)-N-methyl-5,6-dihydroimidazo[1,5-a]pyrazine-7(8H)-carboxamide], the IC50 is 2 nM in test [1] and greater than 25000 nM at BRD4(49-170) bromodomain.

`CNC(=O)N1CCn2c(C3CCOCC3)nc(-c3c(F)ccc4cc(-c5ccn(C)n5)ncc34)c2C1` [Example 94, 1-(7-fluoro-3-(1-methyl-1H-pyrazol-3-yl)isoquinolin-8-yl)-N-methyl-3-(tetrahydro-2H-pyran-4-yl)-5,6-dihydroimidazo[1,5-a]pyrazine-7(8H)-carboxamide]: the values for the IC50 (in test [1]; at BRD4(49-170) bromodomain) were 12 nM and greater than 25000 nM, respectively.

On to `CNC(=O)N1CCn2c(C3CCOCC3)nc(-c3cccc4cc(-c5cnc(C)s5)ncc34)c2C1` [Example 95, N-methyl-1-(3-(2-methylthiazol-5-yl)isoquinolin-8-yl)-3-(tetrahydro-2H-pyran-4-yl)-5,6-dihydroimidazo[1,5-a]pyrazine-7(8H)-carboxamide], for which the IC50 stood at 1 nM in test [1] and 3480 nM at BRD4(49-170) bromodomain.

For `CNC(=O)N1CCn2c(C3CC(F)(F)C3)nc(-c3cccc4cc(-c5cnc(C)s5)ncc34)c2C1` [Example 96, 3-(3,3-difluorocyclobutyl)-N-methyl-1-(3-(2-methylthiazol-5-yl)isoquinolin-8-yl)-5,6-dihydroimidazo[1,5-a]pyrazine-7(8H)-carboxamide], the IC50 in test [1] was determined as 2 nM; on BRD4(49-170) bromodomain, 5540 nM.

Turning to `CNC(=O)N1CCn2c(C3CCC(F)(F)CC3)nc(-c3cccc4cc(-c5cnc(C)s5)ncc34)c2C1` [Example 97, 3-(4,4-difluorocyclohexyl)-N-methyl-1-(3-(2-methylthiazol-5-yl)isoquinolin-8-yl)-5,6-dihydroimidazo[1,5-a]pyrazine-7(8H)-carboxamide], the IC50 in test [1] is 1 nM; on BRD4(49-170) bromodomain, 3320 nM.

Turning to `CNC(=O)N1CCn2c(C3CC3)nc(-c3cccc4nc(-c5cn(C)nc5C)c(C#N)cc34)c2C1` [Example 98, 1-(3-cyano-2-(1,3-dimethyl-1H-pyrazol-4-yl)quinolin-5-yl)-3-cyclopropyl-N-methyl-5,6-dihydroimidazo[1,5-a]pyrazine-7(8H)-carboxamide], the half-maximal inhibitory concentration (IC50) in test [1] was 25 nM; on BRD4(49-170) bromodomain, 9580 nM.

`CNC(=O)c1ccc(-c2nc3cccc(-c4nc(C5CC5)n5c4CN(C(=O)NC)CC5)c3cc2C#N)cn1` [Example 99, 1-(3-cyano-2-(6-(methylcarbamoyl)pyridin-3-yl)quinolin-5-yl)-3-cyclopropyl-N-methyl-5,6-dihydroimidazo[1,5-a]pyrazine-7(8H)-carboxamide]: the IC50 in test [1] was 11 nM; on BRD4(49-170) bromodomain, 8710 nM.

As for `CNC(=O)N1CCn2c(C3CC3)nc(-c3cccc4nc(-c5cnc(C)s5)c(C#N)cc34)c2C1` [Example 100, 1-(3-cyano-2-(2-methylthiazol-5-yl)quinolin-5-yl)-3-cyclopropyl-N-methyl-5,6-dihydroimidazo[1,5-a]pyrazine-7(8H)-carboxamide], the IC50 in test [1] is 4 nM; at BRD4(49-170) bromodomain, 7950 nM.

As for `CNC(=O)N1CCn2c(C3CC3)nc(-c3cccc4nc(-c5cn(C)nc5C)c(C(F)(F)F)cc34)c2C1` [Example 101, 3-cyclopropyl-1-(2-(1,3-dimethyl-1H-pyrazol-4-yl)-3-(trifluoromethyl)quinolin-5-yl)-N-methyl-5,6-dihydroimidazo[1,5-a]pyrazine-7(8H)-carboxamide], the results for the half-maximal inhibitory concentration (IC50) (in test [1]; on BRD4(49-170) bromodomain) were 19 nM and 24700 nM, respectively.

As to `CNC(=O)N1CCn2c(C3CC3)nc(-c3cccc4nc(N5CC6(COC6)C5)c(C#N)cc34)c2C1` [Example 102, 1-(3-cyano-2-(2-oxa-6-azaspiro[3.3]heptan-6-yl)quinolin-5-yl)-3-cyclopropyl-N-methyl-5,6-dihydroimidazo[1,5-a]pyrazine-7(8H)-carboxamide], the 50% inhibitory concentration (IC50) in test [1] was 19 nM; on BRD4(49-170) bromodomain, greater than 25000 nM.

For `CC(=O)N1CCn2c(C3CCOC3)nc(-c3cc4c(-c5cnn(C)c5)nn(C)c4cc3F)c2C1` (centres unmarked) [Example 103, 1-(1-(6-fluoro-1-methyl-3-(1-methyl-1H-pyrazol-4-yl)-1H-indazol-5-yl)-3-(tetrahydrofuran-3-yl)-5,6-dihydroimidazo[1,5-a]pyrazin-7(8H)-yl)ethan-1-one], the IC50 was 147 nM in test [1] and greater than 25000 nM at BRD4(49-170) bromodomain.

As for `CC(=O)N1CCn2c(C3CCOCC3)nc(-c3ccc4c(c3)c(-c3cnn(C)c3)nn4C)c2C1` [Example 104, 1-(1-(1-methyl-3-(1-methyl-1H-pyrazol-4-yl)-1H-indazol-5-yl)-3-(tetrahydro-2H-pyran-4-yl)-5,6-dihydroimidazo[1,5-a]pyrazin-7(8H)-yl)ethan-1-one], the IC50 in test [1] was 107 nM; on BRD4(49-170) bromodomain, 3730 nM.

Regarding `CNC(=O)N1CCn2c(C3CC3)nc(-c3ccc4c(c3)c(-c3cnn(C)c3)nn4C)c2C1` [Example 105, 3-cyclopropyl-N-methyl-1-(1-methyl-3-(1-methyl-1H-pyrazol-4-yl)-1H-indazol-5-yl)-5,6-dihydroimidazo[1,5-a]pyrazine-7(8H)-carboxamide], the IC50 in test [1] amounted to 15 nM; at BRD4(49-170) bromodomain, 7530 nM.

With `CC(=O)N1CCn2c(C3CC3)nc(-c3ccc4c(c3)c(-c3cn(C)nc3C)nn4C)c2C1` [Example 106, 1-(3-cyclopropyl-1-(3-(1,3-dimethyl-1H-pyrazol-4-yl)-1methyl-1H-indazol-5-yl)-5,6-dihydroimidazo[1,5-a]pyrazin-7(8H)-yl)ethan-1-one], the values for the IC50 (in test [1]; on BRD4(49-170) bromodomain) were 286 nM and greater than 25000 nM, respectively.

In the case of `CC(=O)N1CCn2c(C3CC3)nc(N3CCCc4cc(-c5cncc(S(C)(=O)=O)c5)ccc43)c2C1` [Example 107, 1-(3-cyclopropyl-1-(6-(5-(methylsulfonyl)pyridin-3-yl)-3,4-dihydroquinolin-1(2H)-yl)-5,6-dihydroimidazo[1,5-a]pyrazin-7(8H)-yl)ethan-1-one], the concentration for half-maximal inhibition (IC50) in test [1] was 510 nM; at BRD4(49-170) bromodomain, greater than 25000 nM.

Regarding `CC(=O)N1CCn2c(C3CC3)nc(N3CCCc4cc(-c5cnn(C6CC6)c5)ccc43)c2C1` [Example 108, 1-(3-cyclopropyl-1-(6-(1-cyclopropyl-1H-pyrazol-4-yl)-3,4-dihydroquinolin-1(2H)-yl)-5,6-dihydroimidazo[1,5-a]pyrazin-7(8H)-yl)ethan-1-one], the half-maximal inhibitory concentration (IC50) came to 148 nM in test [1] and 14300 nM on BRD4(49-170) bromodomain.

Turning to `CC(=O)N1CCn2c(C3CC3)nc(N3CCCc4cc(-c5cnn(C6CCOCC6)c5)ccc43)c2C1` [Example 109, 1-(3-cyclopropyl-1-(6-(1-(tetrahydro-2H-pyran-4-yl)-1H-pyrazol-4-yl)-3,4-dihydroquinolin-1(2H)-yl)-5,6-dihydroimidazo[1,5-a]pyrazin-7(8H)-yl)ethan-1-one], the IC50 in test [1] came out at 349 nM; on BRD4(49-170) bromodomain, 13800 nM.

In the case of `CC(=O)N1CCn2c(C3CC3)nc(N3CCCc4cc(-c5cnn(C(F)F)c5)ccc43)c2C1` [Example 110, 1-(3-cyclopropyl-1-(6-(1-(difluoromethyl)-1H-pyrazol-4-yl)-3,4-dihydroquinolin-1(2H)-yl)-5,6-dihydroimidazo[1,5-a]pyrazin-7(8H)-yl)ethan-1-one], the values for the half-maximal inhibitory concentration (IC50) (in test [1]; on BRD4(49-170) bromodomain) were 185 nM and 11200 nM, respectively.

In the case of `CC(=O)N1CCn2c(C3CC3)nc(N3CCCc4cc(-c5c(C)noc5C)ccc43)c2C1` [Example 111, 1-(3-cyclopropyl-1-(6-(3,5-dimethylisoxazol-4-yl)-3,4-dihydroquinolin-1(2H)-yl)-5,6-dihydroimidazo[1,5-a]pyrazin-7(8H)-yl)ethan-1-one], the IC50 turned out to be 1450 nM in test [1] and 10300 nM at BRD4(49-170) bromodomain.

As for `CC(=O)N1CCn2c(C3CC3)nc(N3CCCc4cc(-c5ccnc(N6CCOCC6)c5)ccc43)c2C1` [Example 112, 1-(3-cyclopropyl-1-(6-(2-morpholinopyridin-4-yl)-3,4-dihydroquinolin-1(2H)-yl)-5,6-dihydroimidazo[1,5-a]pyrazin-7(8H)-yl)ethan-1-one], the values for the IC50 (in test [1]; at BRD4(49-170) bromodomain) were 270 nM and 21000 nM, respectively.

On to `CC(=O)N1CCn2c(C3CC3)nc(N3CCCc4cc(-c5ccc(=O)n(C)c5)ccc43)c2C1` [Example 113, 5-(1-(7-acetyl-3-cyclopropyl-5,6,7,8-tetrahydroimidazo[1,5-a]pyrazin-1-yl)-1,2,3,4-tetrahydroquinolin-6-yl)-1-methylpyridin-2(1H)-one], for which the IC50 in test [1] was determined as 193 nM; at BRD4(49-170) bromodomain, 3460 nM.

`CC(=O)N1CCn2c(C3CC3)nc(N3CCCc4cc(-c5ccncc5)ccc43)c2C1` [Example 114, 1-(3-cyclopropyl-1-(6-(pyridin-4-yl)-3,4-dihydroquinolin-1(2H)-yl)-5,6-dihydroimidazo[1,5-a]pyrazin-7(8H)-yl)ethan-1-one]: the IC50 is 615 nM in test [1] and greater than 25000 nM on BRD4(49-170) bromodomain.

In the case of `CC(=O)N1CCn2c(C3CC3)nc(N3CCCc4cc(-c5cnn(CC6CC6)c5)ccc43)c2C1` [Example 115, 1-(3-cyclopropyl-1-(6-(1-(cyclopropylmethyl)-1H-pyrazol-4-yl)-3,4-dihydroquinolin-1(2H)-yl)-5,6-dihydroimidazo[1,5-a]pyrazin-7(8H)-yl)ethan-1-one], the concentration for half-maximal inhibition (IC50) in test [1] is 679 nM; at BRD4(49-170) bromodomain it was greater than 25000 nM.
